Among the data in ChEMBL document CHEMBL1149504, “Design and synthesis of substituted quinolines as novel and selective melanin concentrating hormone antagonists as anti-obesity agents” (Bioorg Med Chem Lett, 2006) are Ki and IC50 values, retold here.

Broadly, the Ki is a dissociation constant, usually derived from enzyme kinetics or from competition with a known ligand. Read a low Ki as a stronger hold on the target. A word on the IC50: it is the concentration needed to halve the response being measured. Higher therefore signals weaker potency in that assay.

The target in test [1] is Melanin-concentrating hormone receptor 1 (Homo sapiens, UniProt Q99705). Briefly: Binding affinity to MCHR1 by radioligand binding assay.
Sequence of Melanin-concentrating hormone receptor 1 (Q99705 whole entry): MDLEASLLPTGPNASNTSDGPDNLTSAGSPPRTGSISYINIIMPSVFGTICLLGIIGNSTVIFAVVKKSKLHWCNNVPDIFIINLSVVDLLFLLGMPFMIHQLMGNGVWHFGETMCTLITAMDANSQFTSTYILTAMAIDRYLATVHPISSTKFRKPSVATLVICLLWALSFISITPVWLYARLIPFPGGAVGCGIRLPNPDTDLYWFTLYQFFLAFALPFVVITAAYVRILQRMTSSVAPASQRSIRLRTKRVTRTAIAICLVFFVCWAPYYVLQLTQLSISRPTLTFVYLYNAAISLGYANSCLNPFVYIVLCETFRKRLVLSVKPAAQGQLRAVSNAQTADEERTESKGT
Test [2] has as its target T1, 5-hydroxytryptamine receptor 2C (Homo sapiens, UniProt P28335).
T1 sequence (P28335 whole entry): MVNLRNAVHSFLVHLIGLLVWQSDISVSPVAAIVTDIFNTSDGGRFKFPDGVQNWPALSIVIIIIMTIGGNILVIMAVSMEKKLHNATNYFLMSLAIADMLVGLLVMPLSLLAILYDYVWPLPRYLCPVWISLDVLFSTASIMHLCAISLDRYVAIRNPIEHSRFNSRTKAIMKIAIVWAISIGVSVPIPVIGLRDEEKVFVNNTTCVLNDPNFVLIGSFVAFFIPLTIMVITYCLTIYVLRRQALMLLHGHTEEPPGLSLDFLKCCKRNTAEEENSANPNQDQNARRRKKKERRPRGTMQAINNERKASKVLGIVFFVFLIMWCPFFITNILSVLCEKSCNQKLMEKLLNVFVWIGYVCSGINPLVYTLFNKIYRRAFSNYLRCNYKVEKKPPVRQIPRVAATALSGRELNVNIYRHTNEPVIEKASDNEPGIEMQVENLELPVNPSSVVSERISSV
The test is described as follows: Displacement of [3H]mesulergine from 5HT2C receptor. In general terms: Displacement assays read how much labelled ligand stays bound in the presence of the test substance.

Molecule `CCN(CC)Cc1cnc2c(CNC(=O)c3ccc(-c4ccc(F)cc4)nc3)cccc2c1` returned a Ki in test [1] of 310 nM. The molecule further returned an IC50 in test [2] of 14100 nM.
For `CCN(CC)Cc1cnc2c(CNC(=O)c3ccc(-c4ccc(F)cc4)cc3)cccc2c1`, in that order: 102 nM and 4160 nM.
For `O=C(NCc1cccc2cc(CN3CCOCC3)cnc12)c1ccc(-c2ccc(F)cc2)cc1`, in that order: 1410 nM and 7470 nM.
For `O=C(NCc1cccc2cc(CN3CCC(O)CC3)cnc12)c1ccc(-c2ccc(F)cc2)cc1`, in that order: 195 nM and 2810 nM.
Take `O=C(NCc1cccc2cc(CN3CC[C@H](O)C3)cnc12)c1ccc(-c2ccc(F)cc2)cc1`: in test [1], the Ki was 142 nM. The same molecule gave an IC50 in test [2] of 3590 nM.
As for `CN(C)Cc1cnc2c(Cn3cnc4cc(-c5ccc(Cl)cc5)sc4c3=O)cccc2c1`, the inhibition constant Ki in test [1] was 197 nM. The same molecule yielded an IC50 in test [2] of 1310 nM.
For `CS(=O)(=O)C1CCN(Cc2cnc3c(CNC(=O)c4ccc(-c5ccc(F)cc5)cc4)cccc3c2)CC1`, in that order: 310 nM and > 100000 nM.
The corresponding values for `CCN(CC)Cc1cnc2c(Cn3cnc4cc(-c5ccc(Cl)cc5)sc4c3=O)cccc2c1` are 126 nM and 25200 nM.
On to `O=C(NCc1cccc2cc(CN3CCOCC3)cnc12)c1ccc(-c2ccc(F)cc2)nc1`, for which the Ki in test [1] was found to be 20100 nM. For the same molecule, the IC50 in test [2] was > 100000 nM.
As for `CN(Cc1cccc2cc(CN3CCCCC3)cnc12)C(=O)c1ccc(-c2ccc(F)cc2)cc1`, the Ki in test [1] was found to be 31 nM. The same molecule registered an IC50 in test [2] of 4190 nM.
For `CN(CC(=O)N(C)C)Cc1cnc2c(Cn3cnc4cc(-c5ccc(Cl)cc5)sc4c3=O)cccc2c1`, in that order: 136 nM and > 100000 nM.
For `O=C(NCc1cccc2cc(CN3CCC(O)CC3)cnc12)c1ccc(-c2ccc(F)cc2)nc1`, in that order: 803 nM and 14600 nM.
Regarding `CN(C)Cc1cnc2c(CNC(=O)c3ccc(-c4ccc(F)cc4)nc3)cccc2c1`, affinity in test [1] was put at a Ki of 414 nM. The IC50 in test [2] was found to be 10300 nM.
Consider `CN1CCN(Cc2cnc3c(CNC(=O)c4ccc(-c5ccc(F)cc5)nc4)cccc3c2)CC1`, for which the Ki in test [1] was 3540 nM. In test [2], the IC50 turned out to be 20200 nM.
For `O=C(NCc1cccc2cc(CN3CC[C@H](O)C3)cnc12)c1ccc(-c2ccc(F)cc2)nc1`, the Ki in test [1] is 1150 nM. This molecule also had an IC50 in test [2] of 16500 nM.
In test [1], `O=c1c2sc(-c3ccc(Cl)cc3)cc2ncn1Cc1cccc2cc(CN3CCCC3)cnc12` returned a Ki of 91 nM. Besides, in test [2], the IC50 was > 100000 nM.
The corresponding values for `CS(=O)(=O)N1CCN(Cc2cnc3c(Cn4cnc5cc(-c6ccc(Cl)cc6)sc5c4=O)cccc3c2)CC1` are 773 nM and > 100000 nM.
For `O=c1c2sc(-c3ccc(Cl)cc3)cc2ncn1Cc1cccc2cc(CN3CCC(O)CC3)cnc12`, in that order: 51 nM and > 100000 nM.
For `CN1CCN(Cc2cnc3c(Cn4cnc5cc(-c6ccc(Cl)cc6)sc5c4=O)cccc3c2)CC1`, in that order: 110 nM and > 100000 nM.
